Series [1] has as its system ZIKV H/PAN/2016/BEI-259634. Put plainly: CellTiter-Glo activity assay, ZIKV H/PAN-infected neural stem cells. It counts as cell-based, Zika virus. Particulars: read-out: EC50 H/PAN ZIKV. A general note: ATP-based viability assays read luminescence as a measure of living cells.
The test system of the next series is human neural stem cells. Put plainly: CellTiter-Glo toxicity in mock-infected neural stem cells. Particulars: mock-infected neural stem cells, 72 h, CellTiter-Glo, ± SE, n = 4.
Series [2] has as its system ZIKV PRVABC59/Human/2015/Puerto Rico. The series can be described thus: CellTiter-Glo activity assay, ZIKV PRVABC59-infected neural stem cells. The series is classed as cell-based, Zika virus. The conditions noted are these: for EC50: human neural stem cells, MOI 10, 72 h post-infection, CellTiter-Glo, ± SE, n = 4.
In series [3] the test system is ZIKV H/PAN/2016/BEI-259634. The series is classed as cell-based, Zika virus. Particulars: GSC 387 cells, H/PAN MOI 10, 72 h post-infection.
Series [4] concerns ZIKV H/PAN/2016/BEI-259634. Put plainly: Plaque assay of ZIKV titers from treated hNSC cultures. The series is classed as cell-based, Zika virus. Particulars: human fetal neural stem cells, H/PAN MOI 0.1, 48 h post-infection.
Another series deals with ZIKV RdRP (Zika virus, UniProt A0A024B7W1). Put plainly: Single nucleotide incorporation assay. The conditions noted are these: 150 µM nucleotide, 37 °C; for observed rate of incorporation, kobs: 1 µM RdRP, 200 nM P/T substrate, single exponential fit, n = 2. It counts as biochemical.
Sequence of ZIKV RdRP (A0A024B7W1 2772-3423): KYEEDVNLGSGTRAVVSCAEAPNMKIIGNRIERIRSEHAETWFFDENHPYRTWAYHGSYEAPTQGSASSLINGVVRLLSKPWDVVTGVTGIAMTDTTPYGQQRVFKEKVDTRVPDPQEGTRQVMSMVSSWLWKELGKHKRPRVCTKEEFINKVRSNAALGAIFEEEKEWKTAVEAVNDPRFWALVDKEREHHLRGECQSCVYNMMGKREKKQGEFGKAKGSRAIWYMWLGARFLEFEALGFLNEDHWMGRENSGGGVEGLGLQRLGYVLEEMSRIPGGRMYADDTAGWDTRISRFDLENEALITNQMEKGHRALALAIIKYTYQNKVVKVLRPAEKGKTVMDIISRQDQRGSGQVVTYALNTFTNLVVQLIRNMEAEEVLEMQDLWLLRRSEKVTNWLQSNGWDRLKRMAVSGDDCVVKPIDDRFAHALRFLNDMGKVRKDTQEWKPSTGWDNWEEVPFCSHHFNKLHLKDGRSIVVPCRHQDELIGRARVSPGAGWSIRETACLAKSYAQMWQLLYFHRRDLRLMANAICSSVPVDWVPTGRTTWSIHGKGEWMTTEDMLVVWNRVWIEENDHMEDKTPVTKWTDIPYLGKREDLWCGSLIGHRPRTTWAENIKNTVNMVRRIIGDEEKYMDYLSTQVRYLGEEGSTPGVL
The nature of series [5]: CellTiter-Glo toxicity in mock-infected neural stem cells. The conditions noted are these: human.
Where [6] appears, read: human neural stem cells, MOI 10, 72 h post-infection, CellTiter-Glo, ± SE, n = 4.
The mark [7] stands for this setting: Zika virus, Neural stem cell, in Homo sapiens.

Like-named read-outs stand apart in the source and are kept apart here.

On to `C#CC1(O)C(O)C(COP(=O)(NC(C)C(=O)OC(C)C)Oc2ccccc2)OC1n1ccc(=O)[nH]c1=O` (centres unmarked) [2′-C-Ethynyluridine Aryloxy Phosphoramidate], for which the EC50 in series [1] (setting [6]) worked out at 0.8 ± 1 µM. The half-maximal cytotoxic concentration (CC50) with human neural stem cells is more than 50 µM.

Turning to `CC(C)OC(=O)C(C)NP(=O)(OCC1OC(n2cnc3c(N)ncnc32)C(C)(O)C1O)Oc1ccccc1` (centres unmarked) [2′-C-Methyladenosine aryloxyl phosphoramidate], the values for the EC50 in series [2] and in series [1] (setting [6]) were 10 ± 1 µM and 18 ± 1 µM, respectively. Besides, the midpoint of cytotoxicity in the series with human neural stem cells, the CC50, lay at 42 ± 1 µM.

As for `CC(C)OC(=O)C(C)NP(=O)(OCC1OC(n2ccc(N)nc2=O)C(C)(O)C1O)Oc1ccccc1` (centres unmarked) [2′-C-Methylcytidine aryloxyl phosphoramidate], the values for the EC50 in series [2] and in series [1] (setting [6]) were 48 ± 1 µM and more than 50 µM, respectively.

Regarding `CC(C)OC(=O)C(C)NP(=O)(OCC1OC(n2ccc(=O)[nH]c2=O)C(C)(O)C1O)Oc1ccccc1` (centres unmarked) [2′-C-methyluridine aryloxyl phosphoramidate], the EC50 in series [2] was 1 ± 1 µM; in series [1] (setting [6]), 2 ± 1 µM. Moreover, the “protection from ZIKV-induced cytopathic effect” value is “better able to protect against ZIKV-induced cytopathic effect” in series [3] (10 µM compound) and “able to protect against the cytopathic effect” in series [3] (30 µM compound). Further, the “ZIKV titers by plaque assay” value in series [4] (10 µM compound) and in series [4] (30 µM compound) was “undetectable levels” in each case. The compound also registered a CC50 in the series on human neural stem cells of 47 ± 1 µM.

`C[C@@]1(O)[C@H](O)[C@@H](COP(=O)(O)OP(=O)(O)OP(=O)(O)O)O[C@H]1n1ccc(=O)[nH]c1=O` [2′-C-methyluridine triphosphate]: at ZIKV RdRP, the “observed rate of incorporation, kobs” value was found to be 0.016 ± 0.001 % incorporation min^−1; the “maximal incorporation (plateau)” value was 35%; the “time to half maximal incorporation” value is ~ 45 min.

In the case of `COC1C(O)C(COP(=O)(NC(C)C(=O)OC(C)C)Oc2ccccc2)OC1n1ccc(N)nc1=O` (centres unmarked) [2′-O-Methylcytidine aryloxyl phosphoramidate], the EC50 in series [2] and in series [1] (setting [6]) was more than 50 µM throughout. The compound also returned a cytotoxic concentration (CC50) in the series on human neural stem cells of more than 50 µM.

For `C[C@@]1(F)[C@H](O)[C@@H](COP(=O)(O)OP(=O)(O)OP(=O)(O)O)O[C@H]1n1ccc(=O)[nH]c1=O` [2′-fluoro-2′-C-methyluridine triphosphate], at ZIKV RdRP, the “observed rate of incorporation, kobs” value was 0.0085 ± 0.001 % incorporation min^−1; the “maximal incorporation (plateau)” value is 15%; the “time to half maximal incorporation” value is approximately 90 min.

As for `CC(C)OC(=O)C(C)NP(=O)(OCC1CC(O)C(n2cnc3c(N)ncnc32)O1)Oc1ccccc1` (centres unmarked) [3′-Deoxyadenosine aryloxyl phosphoramidate], the EC50 in series [2] and in series [1] (setting [6]) was more than 50 µM each time. Moreover, the CC50 in the series with human neural stem cells was more than 50 µM.

As for `CC(C)OC(=O)C(C)NP(=O)(OCC1CC(O)C(n2ccc(N)nc2=O)O1)Oc1ccccc1` (centres unmarked) [3′-Deoxycytidine aryloxyl phosphoramidate], the EC50 in series [2] and in series [1] (setting [6]) was more than 50 µM each time. The same compound gave a CC50 in the series with human neural stem cells of more than 50 µM.

On to `COC1C(COP(=O)(NC(C)C(=O)OC(C)C)Oc2ccccc2)OC(n2ccc(=O)[nH]c2=O)C1O` (centres unmarked) [3′-O-Methyluridine aryloxyl phosphoramidate], for which the EC50 in series [2] and in series [1] (setting [6]) was more than 50 µM throughout. The CC50 in the series on human neural stem cells was more than 50 µM.

Turning to `CSCCOP(=O)(NCCc1c[nH]c2ccccc12)OCC1OC(n2ccc(=O)[nH]c2=O)C(C)(O)C1O` (centres unmarked) [(5-(2,4-dioxo-3,4-dihydropyrimidin-1(2H)-yl)-3,4-dihydroxy-4-methyltetrahydrofuran-2-yl)methyl (2-(methylthio)ethyl) (2-(1H-indol-3-yl)ethyl)phosphoramidate], the EC50 in series [2] (setting [7]) was more than 50 µM; in series [1] (Zika virus, Neural stem cell, human neural stem cells, MOI 10, 72 h post-infection, CellTiter-Glo, ± SE, n = 4), more than 50 µM. Moreover, in series [2] (neural stem cells, PRVABC59 and H/PAN strains, highest concentration 50 µM), the “anti-ZIKV activity (in words)” value is listed as “completely abolished activity”. The same compound returned a CC50 at 72 h in series [5] (mock-infected neural stem cells (NSCs)) of more than 50 µM.

In the case of `CC(C)OC(=O)[C@H](C)N[P@](=O)(OC[C@H]1O[C@@H](n2ccc(=O)[nH]c2=O)[C@](C)(F)[C@@H]1O)Oc1ccccc1` [Sofosbuvir, reference compound], the EC50 in series [2] (setting [7]) turned out to be 35 ± 1 µM; in series [1] (Zika virus, Neural stem cell, 72 h) it was 46 ± 1 µM. Moreover, the “protection from ZIKV-induced cytopathic effect” value in series [3] (30 µM compound) is “able to protect against the cytopathic effect”. Also, the “ZIKV titers by plaque assay” value in series [4] (30 µM compound) is “undetectable levels”. In series [5], this compound yielded a half-maximal cytotoxic concentration (CC50) at 72 h of more than 50 µM.

With `O=c1ccn([C@@H]2O[C@H](COP(=O)(O)OP(=O)(O)OP(=O)(O)O)[C@@H](O)[C@H]2O)c(=O)[nH]1` [UTP], at ZIKV RdRP, the “observed rate of incorporation, kobs” value amounted to 0.151 ± 0.004 % incorporation min^−1; the “time to full incorporation” value is listed as ~ 30 min; the “time to half maximal incorporation” value is listed as not above 5 min.

For orientation: CC50 means the concentration at which the toxic effect on the cells reaches its halfway point.

The values are drawn from publication PMC6521205 (Viruses, 2019).
